# Measured values: patent publication US8768431B2, “Systems and methods for tissue imaging” (The Regents of the University of Michigan, priority 2007, dated 2014)
# Assays:
# Format in all cases: in vivo, human
# [1] = test system: Prostate-specific antigen; assay: Serum prostate-specific antigen levels in a metastatic PCa patient; conditions: week 0 10.7 ng/ml
# Procedure: (§1) Patient Information A hormone-naïve person with newly diagnosed metastatic PCa was consented and was enrolled into the study. They were initiated on combined androgen blockade with bicalutamide and goserelin acetate. Magnetic resonance imaging scans were acquired at weeks 0 (baseline), 2, and 8 following treatment initiation which were used to generate the Functional Diffusion Maps at the 2 and 8 week time intervals. Due to pain and pathologic fracture, the patient was also treated with palliative radiation therapy encompassing the sacrum and ilium at 2 weeks post initiation of androgen deprivation therapy.
# Clinical Correlates Serum samples were obtained at weeks 0 (baseline), 2, and 8 following treatment initiation. Prostate-specific antigen levels were quantified and expressed in […] of plasma.
# [2] = test system: metastatic PCa osseous lesions; assay: Tumor volume by T2-weighted MRI in a metastatic PCa patient; conditions: for Tumor volume, Ilium: pretreatment 2.34; for Tumor volume, Femoral Head: pretreatment 52.97; for Tumor volume, Sacrum: pretreatment 68.29
# Procedure: as §1
# (§2) Magnetic Resonance Imaging Magnetic resonance imaging (MRI) examinations including diffusion-weighted and standard anatomic sequences were performed before and 2 weeks after initiation of therapy. MR imaging was performed on a 3-T scanner (Achieva model; Philips Medical Systems, Bothell, Wash.) using a quadrature body coil for transmission and a six-channel cardiac coil for reception. Standard sequences for depiction of anatomy and tumor extent included axial proton density (repetition time [TR]/echo time [TE]=2700/30 msec, two averages) turbo spin-echo and axial T2-weighted turbo spin-echo (TR/TE=7800/60 msec, two averages) with fat suppression through a short inversion time (TI=200 msec). Geometry for these sequences was as follows: field of view, 281 mm right/left by 200 mm anterior/posterior; thirty-eight 4-mm sections with a 1-mm gap; 256—232 acquisition matrix for proton density; and 248 —165 for T2-weighted scans. Diffusion-weighted scans were acquired using fat-suppressed, single-shot, spinecho, echo-planar imaging to reduce motion artifact and parallel imaging (SENSE factor=2) to reduce spatial distortion. Geometry of the diffusion-weighted scans was as follows: 350 mm right/left by 302 mm anterior/posterior; thirty 5-mm sections with a 1-mm gap; 200—172 acquisition matrix; TR/TE=2000/58 msec; and 8 averages for low (b=0 sec/mm2) and 16 averages for high (b=800 sec/mm2) diffusion-sensitivity scans. Apparent diffusion coefficient (ADC) maps were calculated in the routine manner given by the logarithm of the ratio of low-b and high-b images, then scaled by the inverse of b-value difference.
# At the time of initial diagnosis, the patient underwent Tc-99 m MDP BS to ascertain the extent of skeletal involvement. […] After receiving androgen deprivation therapy for 7 weeks, increased sclerosis was observed by CT (FIG. 9B, arrow). […] Further characterization of the lesions was achieved by MRI. […] Tumor volumes were quantified using ROI analysis of each of the three tumors evaluated using T2-weighted MR images at weeks 0, 2, and 8 post-treatment initiation. […] Overall, tumor volume measurements were unable to detect significant perturbations in tumor size in the 8-week timeframe following treatment initiation.
# [3] = test system: metastatic PCa osseous lesions; assay: fDM and mean ADC diffusion MRI of osseous lesions in a metastatic PCa patient; conditions: for mean ADC, femoral head lesion: baseline 74.5×10^−6; for mean ADC, sacral lesion: baseline 110.8×10^−6; for mean ADC, ilium lesion: baseline 78.0×10^−6
# Procedure: as §1, §2
# Diffusion Analysis Lesions in MR images acquired at weeks 2 and 8 were coregistered to their corresponding pretreatment MR images using an automatic algorithm based on maximizing mutual information. Registration was accomplished for each individual tumor located in the sacrum, ilium, and femoral head regions after the images were cropped to localize the registration to a limited region-of-interest (ROI) containing a single lesion. Lesions were manually contoured by a radiologist who defined the ROI by inspection of all available image data. Diffusion-average data were generated for weeks 0, 2 and 8 using the ROI contours of each of the three lesions and the mean change in diffusion values were calculated. Computation of fDMs for each lesion at weeks 2 and 8 was accomplished by comparison of voxels within the tumor at weeks 2 and 8 with the pretreatment values (week 0) as previously described (see, e.g., Moffat B A, et al., (2005) Proc Natl Acad Sci USA 102 (15), 5524-5529; Hamstra D A, et al., (2005) Proc Natl Acad Sci USA 102 (46), 16759-16764; each herein incorporated by reference in their entireties) using MIAMI Fuse (University of Michigan, Ann Arbor, Mich.) (see, e.g., Meyer C R, et al., (1997) Med Image Anal 1 (3), 195-206; herein incorporated by reference in its entirety). The tumor was segmented into three different categories wherein the red voxels represent regions within the tumor where ADC values increased (>[…]), the blue voxels represent a decreased ADC (<[…]), and the green regions represent tumor diffusion values that were within these thresholds (e.g., unchanged). […]
# [4] = Week 3 (so in the source), palliative radiation at 2 weeks
# [5] = 8 weeks posttreatment, palliative radiation at 2 weeks
# [6] = 8 weeks, palliative radiation at 2 weeks
substance,measurement,setting,value
bicalutamide and goserelin acetate,PSA level,[1]; week 2 posttreatment,1.3 ng/mL
same,PSA level,[1]; week 8 posttreatment,0.3 ng/mL
same,"Tumor volume, Ilium",[2]; Week 2,2.76 cm^3
same,"Tumor volume, Femoral Head",[2]; Week 2,51.52 cm^3
same,"Tumor volume, Sacrum",[2]; Week 2,69.46 cm^3
same,"Tumor volume, Ilium",[2]; [4],2.56 cm^3
same,"Tumor volume, Femoral Head",[2]; Week 3 (so in the source),51.35 cm^3
same,"Tumor volume, Sacrum",[2]; [4],72.21 cm^3
same,"mean percentage change from baseline of mean ADC, three lesions",[3]; 2 weeks,−0.7±4.7%
same,"decrease of mean ADC with respect to pre-therapy baseline, three lesions",[3]; 2 weeks post-therapy (FIG. 12 legend),0.7±4.8%
same,"fDM, tumor volume with increased ADC, ilium lesion",[3]; 2 weeks posttreatment,24.5%
same,"fDM, tumor volume with increased ADC, sacral lesion",[3]; 2 weeks posttreatment,26.4%
same,"decrease in mean ADC, sacral lesion",[3]; 2 weeks vs baseline,~10%
same,"mean ADC, femoral head lesion",[3]; 2 weeks,77.8×10^−6 mm^2/sec
same,"mean ADC, sacral lesion",[3]; 2 weeks,99.8×10^−6 mm^2/sec
same,"mean percentage change (increase) from baseline of mean ADC, three lesions",[3]; 8 weeks,8.3±4.3%
same,"fDM, tumor volume with increased ADC, femoral head lesion",[3]; 8 weeks posttreatment,36.4%
same,"fDM, tumor volume with increased ADC, ilium lesion",[3]; [5],47.1%
same,"fDM, tumor volume with increased ADC, sacral lesion",[3]; [5],29.0%
same,"increase in mean ADC above baseline, sacral lesion",[3]; 8 weeks vs baseline,~5%
same,"increase in mean ADC, ilium lesion",[3]; 8 weeks vs baseline,16.7%
same,"mean ADC, femoral head lesion",[3]; 8 weeks,76.8×10^−6 mm^2/sec
same,"mean ADC, ilium lesion",[3]; [6],91.1×10^−6 mm^2/sec
same,"mean ADC, sacral lesion",[3]; [6],116.2×10^−6 mm^2/sec
same,"average fDM percent of tumor volume with increased diffusion, three lesions",[3]; week 2,24±1.6%
same,"mean ADC, ilium lesion",[3]; week 2,80.7×10^−6 mm^2/sec
same,"fDM, volume with significant increase in ADC, femoral head lesion",[3]; week 2 posttreatment,21.1%
same,"average fDM percent of tumor volume with increased diffusion, three lesions",[3]; week 8,38±5.2%
